Test results: ChEMBL document CHEMBL4417629, “Inhibitors of RAD52 Recombination Protein and Methods Using Same” (2018)
Substitutions are numbered along the chain they refer to. Activity calls are given as the source filed them. The calls are words filed in the database; no cut-off is given here.

What was measured:
[1] = target: T1, DNA repair protein RAD52 homolog (Homo sapiens) (UniProt P43351); test: Inhibition of RAD52 (unknown origin) assessed as inhibition of DNA pairing using [32P]-ssDNA by measuring D-loop formation incubated for 15 mins by gel electrophoresis method
T1 sequence (whole entry): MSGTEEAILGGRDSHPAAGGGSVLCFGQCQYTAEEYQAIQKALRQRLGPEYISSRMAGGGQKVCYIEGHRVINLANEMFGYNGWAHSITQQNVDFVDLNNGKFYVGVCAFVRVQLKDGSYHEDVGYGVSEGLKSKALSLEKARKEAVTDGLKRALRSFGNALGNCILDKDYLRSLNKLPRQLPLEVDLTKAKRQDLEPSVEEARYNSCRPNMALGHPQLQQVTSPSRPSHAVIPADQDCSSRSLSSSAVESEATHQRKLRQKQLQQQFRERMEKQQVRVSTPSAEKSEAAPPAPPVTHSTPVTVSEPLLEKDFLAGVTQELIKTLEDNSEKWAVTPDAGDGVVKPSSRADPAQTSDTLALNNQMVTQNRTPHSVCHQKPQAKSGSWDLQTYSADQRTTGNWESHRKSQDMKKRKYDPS

[2] = target: T2, DNA repair protein RAD51 homolog 1 (Homo sapiens) (UniProt Q06609); test: Inhibition of RAD51 (unknown origin) assessed as inhibition of DNA pairing by measuring D-loop formation between [32P]-ssDNA and homologous supercoiled pUC19 DNA at 10 times RAD52 IC50 incubated for 15 mins by gel electrophoresis method relative to control
T2 sequence (whole entry): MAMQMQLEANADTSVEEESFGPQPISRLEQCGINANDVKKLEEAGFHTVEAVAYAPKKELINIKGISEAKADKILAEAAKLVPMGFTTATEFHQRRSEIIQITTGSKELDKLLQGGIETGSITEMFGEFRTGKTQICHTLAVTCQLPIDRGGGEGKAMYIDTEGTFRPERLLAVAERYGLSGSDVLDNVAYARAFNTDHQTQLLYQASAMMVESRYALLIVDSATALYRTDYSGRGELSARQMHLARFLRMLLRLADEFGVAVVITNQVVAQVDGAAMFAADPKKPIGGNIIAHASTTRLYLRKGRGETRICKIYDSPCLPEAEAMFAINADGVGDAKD

Homo sapiens [3] = species: Homo sapiens; test: Growth inhibition of BRCA1-deficient human UWB1.289 cells at 2.5 to 10 uM following media refreshment every 3 days and measured on day 10 by CellTiter-Glo assay; type: functional
[4] = target: T2, DNA repair protein RAD51 homolog 1 (Homo sapiens); test: Inhibition of RAD51 (unknown origin) assessed as inhibition of DNA pairing by measuring D-loop formation between [32P]-ssDNA and homologous supercoiled pUC19 DNA at 30 uM incubated for 15 mins by gel electrophoresis method relative to control
CAPAN-1 = test: Growth inhibition of BRCA2-deficient human Capan1 cells at 2.5 to 10 uM following media refreshment every 3 days and measured on day 10 by CellTiter-Glo assay; type: functional, cell-based
Salmon testes DNA = test: Binding affinity to salmon sperm DNA incubated for 20 mins by acridine orange displacement based fluorescence polarization assay; type: nucleic-acid assay; conditions: Salmonidae
[5] = target: T1, DNA repair protein RAD52 homolog (Homo sapiens); test: Inhibition of RAD52 (unknown origin) expressed in BCR-ABL1-positive and BRCA1-deficient mouse 32Dcl3 cells expressing GFP-RAD52 assessed as cisplatin-induced RAD52 foci formation by measuring fraction of cell without foci at 2.5 uM by AlexaFluor-594 staining based inverted fluorescence microscopy (reference value: 48.4 +/- 6.2%); set-up: scale not given: the % may be the effect or the level left
[6] = target: T1, DNA repair protein RAD52 homolog (Homo sapiens); test: Inhibition of RAD52 (unknown origin) expressed in BCR-ABL1-positive and BRCA1-deficient mouse 32Dcl3 cells expressing GFP-RAD52 assessed as reduction in cisplatin-induced RAD52 foci formation at 2.5 uM by AlexaFluor-594 staining based inverted fluorescence microscopy relative to control; type: cell-based
[7] = target: T1, DNA repair protein RAD52 homolog (Homo sapiens); test: Inhibition of RAD52 in human U2OS cells co-expressing SSA-GFP assessed as inhibition of repair of I-Scel-induced double stranded breaks by measuring green fluorescence at 5 uM by flow cytometry (reference value: 7.1%); type: cell-based; set-up: scale not given: the % may be the effect or the level left
[8] = target: T3, DNA repair protein RAD51 homolog 1 (Mus musculus) (UniProt Q08297); test: Inhibition of RAD51 in BCR-ABL1-positive and BRCA1-proficient mouse 32Dcl3 cells assessed as reduction in cisplatin-induced RAD51 foci formation by AlexaFluor-594 staining based inverted fluorescence microscopy
T3 sequence (whole entry): T2 sequence (whole entry) with N10S, F46Y, A76T, A194G

[9] = target: T1, DNA repair protein RAD52 homolog (Homo sapiens); test: Inhibition of RAD52 in human U2OS cells co-expressing SA-GFP assessed as reduction in single strand DNA annealing incubated for 48 hrs by GFP+ positive cells detection based flow cytometry; type: cell-based
[10] = target: T1, DNA repair protein RAD52 homolog (Homo sapiens); test: Inhibition of RAD52 in human U2OS cells co-expressing SSA-GFP assessed as inhibition of repair of I-Scel-induced double stranded breaks by measuring green fluorescence at 10 uM by flow cytometry (reference value: 7.1%); type: cell-based; set-up: scale not given: the % may be the effect or the level left
U2OS [11] = test: Effect on homology dependent recombination in human U2OS cells co-expressing DR-GFP at 10 to 30 uM flow cytometry; type: functional, cell-based
[12] = target: T4, DNA repair protein RAD51 homolog 1 (Mus musculus, UniProt Q08297); test: Induction of RAD51 foci formation in BCR-ABL1-positive and BRCA1-proficient mouse 32Dcl3 cells by AlexaFluor-594 staining based inverted fluorescence microscopy
T4 sequence (Q08297 whole entry): T2 sequence (whole entry) with N10S, F46Y, A76T, A194G

Homo sapiens [13] = species: Homo sapiens; test: Growth inhibition of BCR-ABL1-positive and BRCA1-deficient human CML cells at 2.5 to 10 uM treated with compound on days 0 and 2 and measured on day 4 by trypan blue staining based assay; type: functional
[14] = target: T1, DNA repair protein RAD52 homolog (Homo sapiens); test: Inhibition of RAD52 in human U2OS cells co-expressing SSA-GFP assessed as inhibition of repair of I-Scel-induced double stranded breaks by measuring green fluorescence at 30 uM by flow cytometry (reference value: 7.1%); type: cell-based; set-up: scale not given: the % may be the effect or the level left
U2OS [15] = test: Effect on homology dependent recombination in human U2OS cells co-expressing DR-GFP assessed as measuring green fluorescence at 10 uM flow cytometry (reference value: 7.13%); type: functional
[16] = target: T1, DNA repair protein RAD52 homolog (Homo sapiens); test: Inhibition of RAD52 in human U2OS cells co-expressing SSA-GFP assessed as inhibition of repair of I-Scel-induced double stranded breaks by measuring green fluorescence at 20 uM by flow cytometry (reference value: 7.1%); type: cell-based; set-up: scale not given: the % may be the effect or the level left
[17] = target: T1, DNA repair protein RAD52 homolog (Homo sapiens); test: Inhibition of RAD52 in human U2OS cells co-expressing SSA-GFP assessed as inhibition of repair of I-Scel-induced double stranded breaks by measuring green fluorescence at 15 uM by flow cytometry (reference value: 7.1%); type: cell-based; set-up: scale not given: the % may be the effect or the level left
U2OS [18] = test: Effect on homology dependent recombination in human U2OS cells co-expressing DR-GFP assessed as measuring green fluorescence at 30 uM flow cytometry (reference value: 7.13%); type: functional
[19] = target: T5, DNA repair protein RAD52 homolog (Homo sapiens, UniProt P43351); test: Effect on RAD52 (unknown origin) expressed in BCR-ABL1-positive and BRCA1-deficient mouse 32Dcl3 cells expressing GFP-RAD52 assessed as induction of RAD52 foci formation by AlexaFluor-594 staining based inverted fluorescence microscopy; type: cell-based
T5 sequence (P43351 whole entry): T1 sequence (whole entry)

U2OS [20] = test: Effect on homology dependent recombination in human U2OS cells co-expressing pMX-GFP at 10 to 30 uM by flow cytometry; type: functional, cell-based
[21] = target: T1, DNA repair protein RAD52 homolog (Homo sapiens); test: Inhibition of RAD52 in human U2OS cells co-expressing SA-GFP assessed as reduction in single strand DNA annealing at 30 uM incubated for 48 hrs by GFP+ positive cells detection based flow cytometry relative to control; type: cell-based
[22] = target: T1, DNA repair protein RAD52 homolog (Homo sapiens); test: Inhibition of RAD52 (unknown origin) expressed in BCR-ABL1-positive and BRCA1-deficient mouse 32Dcl3 cells expressing GFP-RAD52 assessed as cisplatin-induced RAD52 foci formation at 2.5 uM by AlexaFluor-594 staining based inverted fluorescence microscopy (reference value: 38.7 +/- 10%); type: cell-based; set-up: scale not given: the % may be the effect or the level left
U2OS [23] = test: Effect on GFP+ positive cells in human U2OS cells co-expressing pMX-GFP up to 30 uM incubated for 48 hrs by flow cytometry relative to control; type: ADME, cell-based
U2OS [24] = test: Effect on homology dependent recombination in human U2OS cells co-expressing DR-GFP assessed as measuring green fluorescence at 15 uM flow cytometry (reference value: 7.13%); type: functional
U2OS [25] = test: Effect on homology dependent recombination in human U2OS cells co-expressing DR-GFP assessed as measuring green fluorescence at 20 uM flow cytometry (reference value: 7.13%); type: functional
U2OS [26] = test: Effect on homology dependent recombination in human U2OS cells co-expressing DR-GFP assessed as measuring green fluorescence at 5 uM flow cytometry (reference value: 7.13%); type: functional
Homo sapiens [27] = species: Homo sapiens; test: Growth inhibition of BRCA1-proficient human CML cells at 2.5 to 10 uM treated with compound on days 0 and 2 and measured on day 4 by trypan blue staining based assay; type: functional

`COc1ccccc1Nc1nc(NCCCO)c2ccccc2n1` was tested, and the inhibition [1] was “Dose-dependent effect”, the inhibition [2] was 89.7% and the “growth inhibition (GI)” value (Homo sapiens [3]) was “Active”. For the same molecule, the inhibition [4] was over 90% and the “growth inhibition (GI)” value (CAPAN-1) was “Active”.
With `COc1ccc(OC)c(Nc2nc(NCCO)c3ccccc3n2)c1` the inhibition [1] was “Dose-dependent effect”, the inhibition [2] was 75.1% and the “growth inhibition (GI)” value (Homo sapiens [3]) was “Active”. For the same molecule, the inhibition [4] was over 90% and the “growth inhibition (GI)” value (CAPAN-1) was “Active”.
`COc1ccc(-c2nc(C(=O)NCCCN3CCOCC3)cc3c2[nH]c2ccccc23)cc1OC` was tested, and the inhibition [1] was “Dose-dependent effect”, the inhibition [2] was 93.7% and the inhibition [4] was over 90%.
For `COc1ccc(OC)c(Nc2nc(NCCCO)c3ccccc3n2)c1`, the inhibition [1] was “Dose-dependent effect”, the inhibition [2] was 75.6% and the “growth inhibition (GI)” value (Homo sapiens [3]) was “Active”. For the same molecule, the inhibition [4] was over 90%, the Activity (Salmon testes DNA) was “inactive” and the Activity [5] was 71.9%. For the same molecule, the “growth inhibition (GI)” value (CAPAN-1) was “Active” and the fold change (FC) [6] was 2 to 2.5.
For `Cn1nc(-c2ccc(Cl)cc2)c2cc(C(=O)NCCCN3CCCCCC3)sc21`, the inhibition [1] was “Dose-dependent effect”, the inhibition [2] was 48.6% and the “growth inhibition (GI)” value (Homo sapiens [3]) was “Active”. For the same molecule, the inhibition [4] was over 90% and the “growth inhibition (GI)” value (CAPAN-1) was “Active”.
`CCN(CC)CCN=C(S)Nc1ccc2nc(N3CCN(C)CC3)cc(C)c2c1` was tested, and the Activity [7] was 6.54%, the inhibition [8] was “inactive” and the inhibition [9] was “Dose-dependent effect”. For the same molecule, the Activity [10] was 6.28%, the Activity (U2OS [11]) was “inactive” and the Activity [12] was “Non-Toxic”. For the same molecule, the “growth inhibition (GI)” value (Homo sapiens [13]) was “Active”, the Activity [14] was 2.43% and the inhibition [1] was “Dose-dependent effect”. For the same molecule, the Activity (U2OS [15]) was 6.68%, the Activity [16] was 4.94% and the Activity [17] was 4.08%. For the same molecule, the “growth inhibition (GI)” value (Homo sapiens [3]) was “Active”, the inhibition [4] was over 90% and the Activity (U2OS [18]) was 5.18%. The Activity [19] was “Non-Toxic”, the Activity (U2OS [20]) was “inactive” and the Activity (Salmon testes DNA) was “inactive”. For the same molecule, the fold change (FC) [21] was 3.4, the Activity [5] was 57.6% and the Activity [22] was 17%. For the same molecule, the “growth inhibition (GI)” value (CAPAN-1) was “Active”, the Activity (U2OS [23]) was “Non-Toxic” and the Activity (U2OS [24]) was 5.7%. It also gave a fold change (FC) [6] of 2 to 2.5, an Activity (U2OS [25]) of 6.2% and an Activity (U2OS [26]) of 6.98%. For the same molecule, the “growth inhibition (GI)” value (Homo sapiens [27]) was “inactive”.
`CCCCN(CC)CCCN=C(S)Nc1ccc2nc(N3CCN(C)CC3)cc(C)c2c1` was tested, and the inhibition [1] was “Dose-dependent effect”, the inhibition [2] was 108% and the inhibition [4] was over 90%.
For `Cc1ccc(C(=O)c2oc3ccc(Cl)cc3c2NC(=O)CN2CCN(C)CC2)cc1`, the inhibition [1] was “Dose-dependent effect”, the inhibition [2] was 92.5% and the inhibition [4] was over 90%.
In the case of `CN1CCN(CCCNC(=O)c2cc3c(-c4ccc(Cl)cc4)nn(C)c3s2)CC1`, the inhibition [1] is reported as “Dose-dependent effect”, the inhibition [2] is reported as 38.4% and the inhibition [4] is reported as over 90%.
